# Columns and labels:
# [1] = Adverse events, safety and tolerability of OCA 10 mg or 25 mg QD for 28 days; format: in vivo, human; details: for Total adverse events (AEs): both doses
# Description: (§1) To evaluate safety, the PK and PD of OCA administered at 10 mg/day or 25 mg/day in subjects with compensated cirrhosis due to NASH was compared to healthy controls in a randomized, double blind, single center, Phase 3 study. Sixteen subjects with cirrhosis due to NASH and 8 healthy, age- and weight-matched, subjects were randomized in a 1:1 ratio to QD OCA 10 mg or OCA 25 mg for 28 days, according to FIG. 1 and Table 1. Extensive serial PK sampling over a 24-hour period was performed on Day 1 and Day 28 of dosing.
# [2] = Albumin, creatinine, platelets and INR levels in subjects of the clinical study; format: in vivo, human; details: for Albumin, % Change at Day 28 / Albumin, Day 28 / Creatinine, % Change at Day 28 / Creatinine, Day 28 / Platelets, % Change at Day 28 / Platelets, Day 28: median
# Description: as §1
# [3] = Plasma PK of total OCA (AUC0-24 h), serial sampling on Day 1 and Day 28 of dosing; format: in vivo, human
# Description: as §1
# FXR = molecular target: T1, FXR (Homo sapiens, UniProt Q96RI1); test: PD markers of FXR activation (C4, FGF-19) during 28 days of QD OCA; format: in vivo
# T1 construct: FGF-19 released from gut enterocytes (in response to FXR agonist) into portal circulation down regulates endogenous bile acid synthesis in the liver; endogenous in cells; host or cells: human study subjects in vivo (gut enterocytes, liver)
# T1 sequence (Q96RI1 1-486): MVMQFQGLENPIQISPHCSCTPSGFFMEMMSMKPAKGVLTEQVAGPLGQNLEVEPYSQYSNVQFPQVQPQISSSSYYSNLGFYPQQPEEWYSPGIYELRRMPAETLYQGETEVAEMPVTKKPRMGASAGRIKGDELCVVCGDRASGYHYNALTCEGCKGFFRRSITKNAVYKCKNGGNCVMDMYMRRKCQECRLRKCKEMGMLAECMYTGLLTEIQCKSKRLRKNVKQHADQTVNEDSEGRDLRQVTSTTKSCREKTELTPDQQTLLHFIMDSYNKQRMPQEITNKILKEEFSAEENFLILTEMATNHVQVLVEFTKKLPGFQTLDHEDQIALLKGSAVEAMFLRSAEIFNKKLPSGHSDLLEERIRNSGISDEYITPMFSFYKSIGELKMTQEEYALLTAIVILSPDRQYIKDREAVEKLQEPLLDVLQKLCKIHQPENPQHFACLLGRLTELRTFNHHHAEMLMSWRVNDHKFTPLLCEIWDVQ
# Description: In one aspect, obeticholic acid may mediate its action primarily via FXR agonism, wherein FGF-19 released from gut enterocytes (in response to FXR agonist) into portal circulation down regulates endogenous bile acid synthesis in the liver. The present disclosure comprehends a method of measuring FXR agonist activity by, for example, measuring release of FGF-19 into the bloodstream or circulation of a patient administered with OCA. Levels of FGF-19 may be measured by methods known in the art, such as those described herein.
# In some embodiments, the plasma levels of FGF-19, a marker of FXR activation, are determined using a qualified method and a validated method using an enzyme-linked immunosorbent assay (ELISA) method. The plasma concentrations of FGF-19 may be quantitated at predose and after administration of dose.
# In some examples, a monoclonal antibody specific for FGF-19 is pre-coated onto a microplate. Standards, quality controls and samples are pipetted into the wells and any FGF-19 present is bound by the immobilized antibody. After washing away any unbound substances, an enzyme-linked polyclonal antibody specific for FGF-19 is added to the wells. Following a wash to remove any unbound antibody-enzyme reagent, a substrate solution is added to the wells and color develops in the proportion to the amount of FGF-19 bound in the initial step. The color development is stopped and the intensity of the color is measured. The calibration range of the method is 15.625 pg/ml to 1000 pg/ml for FGF-19 using a 100 μl aliquot of standard curve, quality control and sample. In some embodiments, no minimum required dilution is used. In other embodiments, samples may be subjected to a 3× minimum required dilution.
# To evaluate safety, the PK and PD of OCA administered at 10 mg/day or 25 mg/day in subjects with compensated cirrhosis due to NASH was compared to healthy controls in a randomized, double blind, single center, Phase 3 study. […]
# [4] = Liver biochemistry (ALT, AST, GGT, ALP, bilirubin) during 28 days of QD OCA; format: in vivo, human
# Description: as §1
# [5] = both dose groups, throughout the 28-day study
compound,measurement,setting,value
"CC[C@H]1[C@@H](O)[C@@H]2[C@H](CC[C@]3(C)[C@@H]([C@H](C)CCC(=O)O)CC[C@@H]23)[C@@]2(C)CC[C@@H](O)C[C@@H]12 [OCA, 3α,7α-dihydroxy-6α-ethyl-5β-cholan-24-oic acid]",Subjects who discontinued treatment due to elevated bilirubin levels,"[1]; NASH, OCA 25 mg, advanced disease with portal hypertension and history of hyperbilirubinemia, discontinued on Day 25",One
same,Liver-related adverse events reported,[1]; all subjects,one
same,Serious adverse events,[1]; all subjects,No serious adverse events were observed
same,Severity of all AEs,"[1]; all subjects, no trend for liver related AEs",mild or moderate
same,Overall safety and tolerability,[1]; daily OCA at 10 mg and 25 mg,generally safe and well tolerated
same,Subjects experiencing adverse events,[1]; healthy subjects on 10 mg,3 subjects
same,Subjects experiencing adverse events,[1]; healthy subjects on 25 mg,2 subjects
same,Total adverse events (AEs),[1]; healthy subjects,5 AEs
same,Subjects experiencing adverse events,"[1]; healthy subjects, both doses (of 8)",5 subjects
same,Subjects experiencing adverse events,[1]; subjects with NASH on 10 mg,2 subjects
same,Subjects experiencing adverse events,[1]; subjects with NASH on 25 mg,4 subjects
same,Total adverse events (AEs),[1]; subjects with NASH,13 AEs
same,Subjects experiencing adverse events,"[1]; subjects with NASH, both doses (of 16)",Six
same,Subjects reporting mild or moderate pruritus,"[1]; subjects with NASH, no relationship to dose",Four
same,Time for bilirubin levels to return to normal after discontinuation of OCA,[1]; the one NASH subject on 25 mg who discontinued,1 days
same,Albumin levels,[2]; 28 days,No changes
same,INR,[2]; 28 days,No changes
same,Platelet levels,[2]; 28 days,No changes
same,"Albumin, % Change at Day 28","[2]; Healthy, 10 mg OCA (n = 4)",2.3%
same,"Albumin, Day 28","[2]; Healthy, 10 mg OCA (n = 4)",4.5 g/dL
same,"Creatinine, % Change at Day 28","[2]; Healthy, 10 mg OCA (n = 4)",−1.6%
same,"Creatinine, Day 28","[2]; Healthy, 10 mg OCA (n = 4)",0.96 mg/dL
same,"Platelets, % Change at Day 28","[2]; Healthy, 10 mg OCA (n = 4)",0.4%
same,"Platelets, Day 28","[2]; Healthy, 10 mg OCA (n = 4)",262.0 10^9/L
same,"Albumin, % Change at Day 28","[2]; Healthy, 25 mg OCA (n = 4)",−4.0%
same,"Albumin, Day 28","[2]; Healthy, 25 mg OCA (n = 4)",4.0 g/dL
same,"Creatinine, % Change at Day 28","[2]; Healthy, 25 mg OCA (n = 4)",8.3%
same,"Creatinine, Day 28","[2]; Healthy, 25 mg OCA (n = 4)",0.78 mg/dL
same,"Platelets, % Change at Day 28","[2]; Healthy, 25 mg OCA (n = 4)",4.0%
same,"Platelets, Day 28","[2]; Healthy, 25 mg OCA (n = 4)",261.0 10^9/L
same,"Albumin, % Change at Day 28","[2]; NASH CP-A, 10 mg OCA (n = 8)",−3.9%
same,"Albumin, Day 28","[2]; NASH CP-A, 10 mg OCA (n = 8)",4.0 g/dL
same,"Creatinine, % Change at Day 28","[2]; NASH CP-A, 10 mg OCA (n = 8)",4.3%
same,"Creatinine, Day 28","[2]; NASH CP-A, 10 mg OCA (n = 8)",0.88 mg/dL
same,"Platelets, % Change at Day 28","[2]; NASH CP-A, 10 mg OCA (n = 8)",−9.7%
same,"Platelets, Day 28","[2]; NASH CP-A, 10 mg OCA (n = 8)",101.5 10^9/L
same,"Albumin, % Change at Day 28","[2]; NASH CP-A, 25 mg OCA (n = 8)",−6.5%
same,"Albumin, Day 28","[2]; NASH CP-A, 25 mg OCA (n = 8)",4.0 g/dL
same,"Creatinine, % Change at Day 28","[2]; NASH CP-A, 25 mg OCA (n = 8)",0.8%
same,"Creatinine, Day 28","[2]; NASH CP-A, 25 mg OCA (n = 8)",0.87 mg/dL
same,"Platelets, % Change at Day 28","[2]; NASH CP-A, 25 mg OCA (n = 8)",−2.0%
same,"Platelets, Day 28","[2]; NASH CP-A, 25 mg OCA (n = 8)",155.5 10^9/L
same,Plasma exposure of total OCA in subjects with cirrhosis due to NASH relative to healthy subjects,[3]; daily OCA 10 mg and 25 mg,higher
same,Hepatic exposure of OCA,"[3]; despite increased systemic exposure, FIGS. 11A and 11B",remain nominal
same,PD effects,FXR; both doses of OCA,favorable PD effects
same,C4,FXR; both dosing groups,suppression
same,FGF-19,FXR; both dosing groups,activation
same,Bilirubin levels (direct and total),"[4]; 10 mg and 25 mg groups, 28 days",no apparent trend
same,ALP,"[4]; OCA 25 mg group, mostly driven by subjects with elevated ALP at Baseline",moderate increase
same,ALT,[4]; [5],improvements
same,AST,[4]; [5],improvements
same,GGT,[4]; [5],improvements
